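Tested at 5 concentrations; 48 h exposure; 96-well plates; endpoints linearly interpolated, else capped at highest concentration. At the GI50, growth is halved.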 Active and inactive are the calls of the source. Rule as the data show it: active = GI50 up to about 1.1 µM and inactive = higher.
Columns and labels:
Experiment in all cases: inhibition of tumour cell growth, NCI panel, 48 h
[1] = test system: 786-0
[2] = test system: A498
[3] = test system: A549
[4] = test system: ACHN
[5] = test system: CAKI-1
[6] = test system: CCRF-CEM
[7] = test system: DLD-1
[8] = test system: DMS-114
[9] = test system: DMS-273
[10] = test system: EKVX
[11] = test system: HCC 2998
[12] = test system: HCT-116
[13] = test system: HCT-15
[14] = test system: HL-60
[15] = test system: HOP-92
[16] = test system: HT-29
[17] = test system: IGROV-1
[18] = test system: K562
[19] = test system: KM-20L2
[20] = test system: LOX IMVI
[21] = test system: LXFL 529
[22] = test system: M14
[23] = test system: M19-MEL
[24] = test system: MOLT-4
[25] = test system: Malme-3M
[26] = test system: NCI-H226
[27] = test system: NCI-H23
[28] = test system: NCI-H460
[29] = test system: OVCAR-3
[30] = test system: OVCAR-4
[31] = test system: OVCAR-5
[32] = test system: OVCAR-8
[33] = test system: RPMI-8226
[34] = test system: RXF 393
[35] = test system: SF-268
[36] = test system: SF-295
[37] = test system: SF-539
[38] = test system: SK-MEL-28
[39] = test system: SK-MEL-2
[40] = test system: SK-MEL-5
[41] = test system: SN12C
[42] = test system: SNB-19
[43] = test system: SNB-75
[44] = test system: SNB-78
[45] = test system: SR
[46] = test system: SW-620
[47] = test system: TK-10
[48] = test system: U-251
[49] = test system: UACC-257
[50] = test system: UACC-62
[51] = test system: UO-31
[52] = test system: XF498
[53] = test system: COLO 205
[54] = test system: KM12
[55] = test system: NCI-H522
[56] = test system: SK-OV-3

SMILES: Cc1c(Cl)cccc1NC(=O)CC1C(=O)Nc2ccccc2S1(=O)=O (centres undefined)
- GI50 [1]: 17.3 µM (inactive)
- GI50 [2]: 15.3 µM (inactive)
- GI50 [3]: 18.2 µM (inactive)
- GI50 [4]: 16.5 µM (inactive)
- GI50 [5]: 19.9 µM (inactive)
- GI50 [6]: 16.5 µM (inactive)
- GI50 [7]: 15.1 µM (inactive)
- GI50 [8]: 16.5 µM (inactive)
- GI50 [9]: 7.69 µM (inactive)
- GI50 [10]: 25.6 µM (inactive)
- GI50 [11]: 16.7 µM (inactive)
- GI50 [12]: 15.8 µM (inactive)
- GI50 [13]: 10.3 µM
- GI50 [14]: 2.72 µM (inactive)
- GI50 [15]: 15.7 µM (inactive)
- GI50 [16]: 17.6 µM (inactive)
- GI50 [17]: 15.3 µM (inactive)
- GI50 [18]: 5.5 µM (inactive)
- GI50 [19]: 22.4 µM (inactive)
- GI50 [20]: 14.6 µM (inactive)
- GI50 [21]: 15.3 µM (inactive)
- GI50 [22]: 14.2 µM (inactive)
- GI50 [23]: 20.4 µM (inactive)
- GI50 [24]: 7.83 µM (inactive)
- GI50 [25]: 17.6 µM (inactive)
- GI50 [26]: 16.9 µM (inactive)
- GI50 [27]: 18.1 µM (inactive)
- GI50 [28]: 14.7 µM (inactive)
- GI50 [29]: 16.6 µM (inactive)
- GI50 [30]: 20.5 µM (inactive)
- GI50 [31]: 20.6 µM (inactive)
- GI50 [32]: 18.4 µM (inactive)
- GI50 [33]: 11.6 µM (inactive)
- GI50 [34]: 14.7 µM (inactive)
- GI50 [35]: 19.6 µM (inactive)
- GI50 [36]: 19.7 µM (inactive)
- GI50 [37]: 14.7 µM (inactive)
- GI50 [38]: 18.6 µM (inactive)
- GI50 [39]: 19.4 µM (inactive)
- GI50 [40]: 12.2 µM (inactive)
- GI50 [41]: 16.7 µM (inactive)
- GI50 [42]: 33 µM (inactive)
- GI50 [43]: 17.2 µM (inactive)
- GI50 [44]: 20.2 µM (inactive)
- GI50 [45]: 10.5 µM (inactive)
- GI50 [46]: 20 µM (inactive)
- GI50 [47]: 25.8 µM (inactive)
- GI50 [48]: 13.1 µM (inactive)
- GI50 [49]: 24 µM (inactive)
- GI50 [50]: 7.52 µM (inactive)
- GI50 [51]: 17.1 µM (inactive)
- GI50 [52]: 15.2 µM (inactive)

SMILES: CCOC(=O)C(N=C(c1ccccc1)c1ccccc1)N(C(=O)OC(C)(C)C)C(=O)OC(C)(C)C (centres undefined)
- GI50 [1]: > 100 µM (inactive)
- GI50 [3]: > 100 µM (inactive)
- GI50 [4]: > 100 µM (inactive)
- GI50 [5]: > 100 µM (inactive)
- GI50 [53]: > 100 µM (inactive)
- GI50 [8]: > 100 µM (inactive)
- GI50 [10]: > 100 µM (inactive)
- GI50 [11]: > 100 µM (inactive)
- GI50 [12]: > 100 µM (inactive)
- GI50 [13]: > 100 µM
- GI50 [15]: 7.45 µM (inactive)
- GI50 [16]: > 100 µM (inactive)
- GI50 [17]: > 100 µM (inactive)
- GI50 [18]: > 100 µM (inactive)
- GI50 [19]: > 100 µM (inactive)
- GI50 [54]: > 100 µM (inactive)
- GI50 [21]: 75.2 µM (inactive)
- GI50 [23]: > 100 µM (inactive)
- GI50 [24]: > 100 µM (inactive)
- GI50 [25]: > 100 µM (inactive)
- GI50 [26]: > 100 µM (inactive)
- GI50 [27]: > 100 µM (inactive)
- GI50 [55]: > 100 µM (inactive)
- GI50 [29]: > 100 µM (inactive)
- GI50 [30]: > 100 µM (inactive)
- GI50 [31]: > 100 µM (inactive)
- GI50 [32]: > 100 µM (inactive)
- GI50 [33]: 64.3 µM (inactive)
- GI50 [34]: 19.8 µM (inactive)
- GI50 [35]: > 100 µM (inactive)
- GI50 [36]: > 100 µM (inactive)
- GI50 [37]: > 100 µM (inactive)
- GI50 [38]: > 100 µM (inactive)
- GI50 [39]: > 100 µM (inactive)
- GI50 [40]: > 100 µM (inactive)
- GI50 [56]: > 100 µM (inactive)
- GI50 [41]: > 100 µM (inactive)
- GI50 [42]: > 100 µM (inactive)
- GI50 [43]: 82 µM (inactive)
- GI50 [44]: > 100 µM (inactive)
- GI50 [45]: 69.3 µM (inactive)
- GI50 [46]: > 100 µM (inactive)
- GI50 [47]: > 100 µM (inactive)
- GI50 [48]: > 100 µM (inactive)
- GI50 [49]: > 100 µM (inactive)
- GI50 [50]: > 100 µM (inactive)
- GI50 [51]: > 100 µM (inactive)
